Tests used:
biuret hydrolase [1] = test: BiuH activity in the presence of urea (Berthelot ammonia assay); type: biochemical, Herbaspirillum sp. BH-1
Protocol: (§1) Analytical methods: The colorimetric Berthelot ammonia assay was used to measure residual ammonium (NH4^+) present in the urea and to detect NH4^+ released from the residual biuret in urea by addition of biuret hydrolase (BiuH) enzyme. The assay was conducted by adding 0.100 ml of sample directly to 0.300 ml of solution A (10 g/L phenol and 0.050 g/L sodium nitroprusside), followed by addition of 0.400 ml of solution B (5 g/L sodium hydroxide and 8.25 ml/L of commercial chlorine bleach or 5.25% sodium hypochlorite). The reactions were pulsed on a vortex mixer, incubated at 37° C. for 60 min, and then absorbance at 630 nm was read with a Beckman-Coulter DU-640 spectrophotometer. Quantification of NH4^+ was done via a standard curve prepared from ammonium chloride (NH4Cl) (Sigma-Aldrich, St. Louis, Mo.) standards at 5-1000 μM in deionized reverse osmosis (DI/RO) water that were analyzed with the Berthelot reaction.
BiuH activity in the presence of urea: Biuret degradation reactions were performed by adding 10-20 μg purified BiuH to 0.5 ml of urea standards (0.5-8 M) in DI/RO water in 1.7 ml microcentrifuge tubes. […] Total ammonium (NH4^+) was quantified with the Berthelot assay. Residual biuret present in urea was determined by treating unspiked urea standards with BiuH and subtracting the amount of residual NH4^+ detected above. […]

[2] = molecular target: T1, triuret hydrolase (TrtA) from Herbaspirillum sp. BH-1 (Herbaspirillum sp. BH-1, UniProt A0A2N6JFX7); test: Kinetic constants of triuret hydrolase (Km for triuret, inhibition by urea, FIG. 16B); type: biochemical; details: urea concentrations up to 50 mM
T1 sequence (A0A2N6JFX7 1-227): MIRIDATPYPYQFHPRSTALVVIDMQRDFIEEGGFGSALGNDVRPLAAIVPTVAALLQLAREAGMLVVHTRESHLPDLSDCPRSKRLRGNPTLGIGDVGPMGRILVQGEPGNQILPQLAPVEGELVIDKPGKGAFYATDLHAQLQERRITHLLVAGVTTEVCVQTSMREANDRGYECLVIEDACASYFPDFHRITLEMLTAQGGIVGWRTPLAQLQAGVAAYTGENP

[3] = tested on: native biuret hydrolase (BiuH) from Herbaspirillum sp. BH-1, six-histidine tag; test: BiuH activity in the presence of urea (Berthelot ammonia assay, FIGS. 4, 5A-5B); type: biochemical
Protocol: FIG. 4. Evaluation of urea inhibition of biuret hydrolase and various urea concentrations. Biuret was added at 0.8 mM concentration and 30 microgram enzyme per ml incubated for 30 minutes.
as §1
Enzyme purification: A synthetic gene encoding the native biuret hydrolase from Herbaspirillum sp. BH-1 was expressed with a C- or N-terminal six-histidine tag from an isopropyl-β-D-thiogalactoside (IPTG)-inducible promoter T7 promoter on a plasmid in Eschrichia coli BL2(DE3). Cells were harvested by centrifugation and lysed with a French pressure cell (two passages at 124 MPa) in a buffer of 20 mM sodium phosphate (pH 7.4), 500 mM sodium chloride, 10 mM imidazole, and 10 mM 2-mercaptoethanol. The resulting crude lysate was centrifuged at 19,000×g for 60 min and the supernatant was passed through a […] filter. An AKTA FPLC system (GE Healthcare, Chicago, Ill.) was used to inject the filtrate (cleared crude lysate) onto a HisTrap affinity column (GE Healthcare) charged with Ni^2+ ions. Bound BiuH was eluted from the column with a linear gradient of 20-250 mM imidazole in the same buffer. […] Total protein concentration was determined with the BioRad (Hercules, Calif.) Bradford protein assay reagent and BiuH purity was verified by SDS-PAGE. […]
BiuH activity in the presence of urea: Biuret degradation reactions were performed by adding 10-20 μg purified BiuH to 0.5 ml of urea standards (0.5-8 M) in DI/RO water in 1.7 ml microcentrifuge tubes. […] Total ammonium (NH4^+) was quantified with the Berthelot assay. Residual biuret present in urea was determined by treating unspiked urea standards with BiuH and subtracting the amount of residual NH4^+ detected above. […] Net NH4^+ released from the spiked biuret by BiuH was calculated by subtracting the amounts of residual biuret and NH4^+ detected in the control treatments. […]

biuret hydrolase [4] = molecular target: T2, biuret hydrolase (Rhizobium johnstonii, UniProt Q1M7F4); test: Inhibition of biuret hydrolase by urea, kinetic constants; type: biochemical
T2 construct: six-histidine tag (C); made in house; host or cells: Escherichia coli BL21(DE3)
T2 sequence (Q1M7F4 whole entry): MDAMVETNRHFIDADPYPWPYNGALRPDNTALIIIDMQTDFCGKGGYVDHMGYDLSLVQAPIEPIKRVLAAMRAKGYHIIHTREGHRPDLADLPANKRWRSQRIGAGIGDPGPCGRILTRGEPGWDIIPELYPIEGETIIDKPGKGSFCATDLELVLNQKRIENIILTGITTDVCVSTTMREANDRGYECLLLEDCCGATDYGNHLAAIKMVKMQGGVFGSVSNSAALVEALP

cyanuric acid hydrolase = details: no turnover observed; cited from earlier work

NC(N)=O [urea]
inhibition of biuret hydrolase by urea (biuret hydrolase [1]; 4M urea, NH4+ released from residual biuret in 0.5-8.0 M Fluka urea): slight inhibition
inhibition of biuret hydrolase by urea (biuret hydrolase [1]; urea up to 0.5M, biuret 0.8 mM, 30 microgram enzyme per ml, 30 minutes): not inhibited
inhibition by urea [2]: no inhibition was measurable
inhibition by urea ([3]; 4M urea, residual biuret in Fluka urea): slight inhibition
inhibition by urea ([3]; 10,000 fold higher concentration of urea than biuret): not inhibited
inhibition by urea ([3]; urea concentrations higher than 4M (up to 8.0 M), residual biuret in Fluka urea): stronger inhibition
inhibition by urea ([3]; urea up to 0.5M, 0.8 mM biuret, 30 microgram enzyme per ml, 30 minutes): not inhibited
Ki (biuret hydrolase [4]): 34 mM
inhibition of triuret hydrolase by urea (triuret hydrolase; urea concentrations up to 50 mM): no inhibition

O=C1CC(=O)NC(=O)N1 [barbituric acid]
effect on cyanuric acid hydrolase (cyanuric acid hydrolase): inhibitor

NC(=O)NC(=O)NC(N)=O [triuret]
Km (triuret hydrolase; read-out: Km for triuret): 20 to 21 µM
